Experimental data as given in patent US11541055B2, “Inhibitors of human immunodeficiency virus replication” (ViiV Healthcare UK (No. 5) LIMITED, priority 2018, dated 2023).

Experiments:
[1] = Compound cytotoxicity, XTT-based colorimetric assay; assay type: cell-based; conditions: human; uninfected MT2 cells, day 4, XTT
Outline: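 Run under the antiviral-assay protocol but without virus. Viability was read on day 4 and CC50 values were derived from the readout.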

[2] = system: recombinant NL4-3 virus (Renilla luciferase) in MT-2 cells; experiment: HIV cell culture assay (antiviral activity, luciferase readout); assay type: cell-based; conditions: Renilla, NL43
Outline: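 Antiviral EC50 was derived via the median effect equation from luciferase signal. The signal came from MT-2 cultures infected for 4–5 days with a nef-deleted, Renilla luciferase-expressing NL4-3 reporter virus (made in 293T cells) in the presence of compound dilutions.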

Row | Compound | CC50 at 4 days [1] | EC50 [2]
1 | CS(=O)(=O)Nc1nn(CC(F)(F)F)c2c(-n3c([C@H](Cc4cc(F)cc(F)c4)NC(=O)Cn4nc(C(F)F)c5c4C(F)(F)[C@@H]4C[C@H]54)nc4cc(-c5cccnn5)ccc4c3=O)ccc(Cl)c12 (atropisomer, axis not shown) [Example 107, N-[(1S)-1-{3-[4-chloro-3-methanesulfonamido-1-(2,2,2-trifluoroethyl)-1H-indazol-7-yl]-4-oxo-7-(pyridazin-3-yl)-3,4-dihydroquinazolin-2-yl}-2-(3,5-difluoropheny)ethyl]-2-[(2S,4R)-9-(difluoromethyl)-5,5-difluoro-7,8-diazatricyclo[4.3.0.0^2,^4]nona-1(6),8-dien-7-yl]acetamide] | > 500 nM | 0.048 nM
2 | O=C(Cn1nc(C(F)F)c2c1C(F)(F)[C@@H]1C[C@H]21)N[C@@H](Cc1cc(F)cc(F)c1)c1nc2cc(-c3cccnn3)ccc2c(=O)n1-c1ccc(Cl)c2c(NS(=O)(=O)C3CC3)nn(CC(F)F)c12 (atropisomer, axis not shown; (P)) [Example 89, N—((S)-1-((3P)-3-(4-chloro-3-(cyclopropanesulfonamido)-1-(2,2-difluoroethyl)-1H-indazol-7-yl)-4-oxo-7-(pyridazin-3-yl)-3,4-dihydroquinazolin-2-yl)-2-(3,5-difluorophenyl)ethyl)-2-((3bS,4aR)-3-(difluoromethyl)-5,5-difluoro-3b,4,4a,5-tetrahydro-1H-cyclopropa[3,4]cyclopenta[1,2-c]pyrazol-1-yl)acetamide] | > 500 nM | 0.075 nM
3 | CN(c1cccc(-c2ccc3c(=O)n(-c4ccc(Cl)c5c(NS(C)(=O)=O)nn(C)c45)c([C@H](Cc4cc(F)cc(F)c4)NC(=O)Cn4nc(C(F)F)c5c4C(F)(F)[C@@H]4C[C@H]54)nc3c2)c1)S(C)(=O)=O [Example 28, N—((S)-1-((3P)-3-(4-chloro-1-methyl-3-(methylsulfonamido)-1H-indazol-7-yl)-7-(3-(N-methylmethylsulfonamido)phenyl)-4-oxo-3,4-dihydroquinazolin-2-yl)-2-(3,5-difluorophenyl)ethyl)-2-((3bS,4aR)-3-(difluoromethyl)-5,5-difluoro-3b,4,4a,5-tetrahydro-1H-cyclopropa[3,4]cyclopenta[1,2-c]pyrazol-1-yl)acetamide] | > 500 nM | 0.22 nM
4 | COc1ncc(-c2ccc3c(=O)n(-c4ccc(Cl)c5c(NS(C)(=O)=O)nn(CC(F)(F)F)c45)c([C@H](Cc4cc(F)cc(F)c4)NC(=O)Cn4nc(C(F)F)c5c4C(F)(F)[C@@H]4C[C@H]54)nc3c2)cn1 (atropisomer, axis not shown) [Example 116, N-[(1S)-1-{3-[4-chloro-3-methanesulfonamido-1-(2,2,2-trifluoroethyl)-1H-indazol-7-yl]-7-(2-methoxypyrimidin-5-yl)-4-oxo-3,4-dihydroquinazolin-2-yl}-2-(3,5-difluorophenyl)ethyl]-2-[(2S,4R)-9-(difluoromethyl)-5,5-difluoro-7,8-diazatricyclo[4.3.0.0^2,^4]nona-1(6),8-dien-7-yl]acetamide] | > 500 nM | 0.072 nM
5 | Cn1nc(NS(C)(=O)=O)c2c(Cl)ccc(-n3c([C@H](Cc4cc(F)cc(F)c4)NC(=O)Cn4nc(C(F)F)c5c4C(F)(F)[C@@H]4C[C@H]54)nc4cc(-c5ccccc5C(F)F)ccc4c3=O)c21 (atropisomer, axis not shown; (P)) [Example 12, N—((S)-1-((3P)-3-(4-chloro-1-methyl-3-(methylsulfonamido)-1H-indazol-7-yl)-7-(2-(difluoromethyl)phenyl)-4-oxo-3,4-dihydroquinazolin-2-yl)-2-(3,5-difluorophenyl)ethyl)-2-((3bS,4aR)-3-(difluoromethyl)-5,5-difluoro-3b,4,4a,5-tetrahydro-1H-cyclopropa[3,4]cyclopenta[1,2-c]pyrazol-1-yl)acetamide] | > 500 nM | 0.37 nM
6 | COc1ccc(-c2ccc3c(=O)n(-c4ccc(Cl)c5c(NS(C)(=O)=O)nn(C)c45)c([C@H](Cc4cc(F)cc(F)c4)NC(=O)Cn4nc(C(F)F)c5c4C(F)(F)[C@@H]4C[C@H]54)nc3c2)nn1 (atropisomer, axis not shown; (P)) [Example 7, N—((S)-1-((3P)-3-(4-chloro-1-methyl-3-(methylsulfonamido)-1H-indazol-7-yl)-7-(6-methoxypyridazin-3-yl)-4-oxo-3,4-dihydroquinazolin-2-yl)-2-(3,5-difluorophenyl)ethyl)-2-((3bS,4aR)-3-(difluoromethyl)-5,5-difluoro-3b,4,4a,5-tetrahydro-1H-cyclopropa[3,4]cyclopenta[1,2-c]pyrazol-1-yl)acetamide] | > 500 nM | 0.053 nM
7 | COc1ccc(-c2ccc3c(=O)n(-c4ccc(Cl)c5c(NS(C)(=O)=O)nn(C)c45)c([C@H](Cc4cc(F)cc(F)c4)NC(=O)Cn4nc(C(F)F)c5c4C(F)(F)[C@@H]4C[C@H]54)nc3c2)c(C)n1 (atropisomer, axis not shown; (P)) [Example 5, N—((S)-1-((3P)-3-(4-chloro-1-methyl-3-(methylsulfonamido)-1H-indazol-7-yl)-7-(6-methoxy-2-methylpyridin-3-yl)-4-oxo-3,4-dihydroquinazolin-2-yl)-2-(3,5-difluorophenyl)ethyl)-2-((3bS,4aR)-3-(difluoromethyl)-5,5-difluoro-3b,4,4a,5-tetrahydro-1H-cyclopropa[3,4]cyclopenta[1,2-c]pyrazol-1-yl)acetamide] | > 500 nM | 0.94 nM
8 | Cn1nc(NS(C)(=O)=O)c2c(Cl)ccc(-n3c([C@H](Cc4cc(F)cc(F)c4)NC(=O)Cn4nc(C(F)F)c5c4C(F)(F)[C@@H]4C[C@H]54)nc4cc(-c5nccnc5CO)ccc4c3=O)c21 (atropisomer, axis not shown; (P)) [Example 18, N—((S)-1-((3P)-3-(4-chloro-1-methyl-3-(methylsulfonamido)-1H-indazol-7-yl)-7-(3-(hydroxymethyl)pyrazin-2-yl)-4-oxo-3,4-dihydroquinazolin-2-yl)-2-(3,5-difluorophenyl)ethyl)-2-((3bS,4aR)-3-(difluoromethyl)-5,5-difluoro-3b,4,4a,5-tetrahydro-1H-cyclopropa[3,4]cyclopenta[1,2-c]pyrazol-1-yl)acetamide] | > 500 nM | 0.099 nM
9 | CC(C)(C)S(=O)(=O)c1ccccc1-c1ccc2c(=O)n(-c3ccc(Cl)c4c(NS(C)(=O)=O)nn(CC(F)F)c34)c([C@H](Cc3cc(F)cc(F)c3)NC(=O)Cn3nc(C(F)F)c4c3C(F)(F)[C@@H]3C[C@H]43)nc2c1 (atropisomer, axis not shown) [Example 130] | > 500 nM | 0.13 nM
10 | CC(C)(C)S(=O)(=O)c1ccccc1-c1ccc2c(=O)n(-c3ccc(Cl)c4c(NS(=O)(=O)C5CC5)nn(CC(F)F)c34)c([C@H](Cc3cc(F)cc(F)c3)NC(=O)Cn3nc(C(F)F)c4c3C(F)(F)[C@@H]3C[C@H]43)nc2c1 (atropisomer, axis not shown) [Example 143] | > 500 nM | 0.28 nM
11 | Cc1ccc(-n2c([C@H](Cc3cc(F)cc(F)c3)NC(=O)Cn3nc(C(F)F)c4c3C(F)(F)[C@@H]3C[C@H]43)nc3cc(-c4ccccc4S(=O)(=O)C(C)(C)C)ccc3c2=O)c2c1c(NS(=O)(=O)C1CC1)nn2CC(F)F (atropisomer, axis not shown) [Example 142, N-[(1S)-1-{3-[3-cyclopropanesulfonamido-1-(2,2-difluoroethyl)-4-methyl-1H-indazol-7-yl]-7-[2-(2-methylpropane-2-sulfonyl)phenyl]-4-oxo-3,4-dihydroquinazolin-2-yl}-2-(3,5-difluorophenyl)ethyl]-2-[(2S,4R)-9-(difluoromethyl)-5,5-difluoro-7,8-diazatricyclo[4.3.0.0^2,^4]nona-1(6),8-dien-7-yl]acetamide] | > 500 nM | 0.38 nM
12 | Cc1nccc(-c2ccc3c(=O)n(-c4ccc(Cl)c5c(NS(C)(=O)=O)nn(C)c45)c([C@H](Cc4cc(F)cc(F)c4)NC(=O)Cn4nc(C(F)F)c5c4C(F)(F)[C@@H]4C[C@H]54)nc3c2)n1 [Example 10, N—((S)-1-((3P)-3-(4-chloro-1-methyl-3-(methylsulfonamido)-1H-indazol-7-yl)-7-(2-methylpyrimidin-4-yl)-4-oxo-3,4-dihydroquinazolin-2-yl)-2-(3,5-difluorophenyl)ethyl)-2-((3bS,4aR)-3-(difluoromethyl)-5,5-difluoro-3b,4,4a,5-tetrahydro-1H-cyclopropa[3,4]cyclopenta[1,2-c]pyrazol-1-yl)acetamide] | > 500 nM | 0.042 nM
13 | Cn1nc(NS(C)(=O)=O)c2c(Cl)ccc(-n3c([C@H](Cc4cc(F)cc(F)c4)NC(=O)Cn4nc(C(F)F)c5c4C(F)(F)[C@@H]4C[C@H]54)nc4cc(-c5ccnc(C6CC6)n5)ccc4c3=O)c21 (atropisomer, axis not shown; (P)) [Example 78, N—((S)-1-((3P)-3-(4-chloro-1-methyl-3-(methylsulfonamido)-1H-indazol-7-yl)-7-(2-cyclopropylpyrimidin-4-yl)-4-oxo-3,4-dihydroquinazolin-2-yl)-2-(3,5-difluorophenyl)ethyl)-2-((3bS,4aR)-3-(difluoromethyl)-5,5-difluoro-3b,4,4a,5-tetrahydro-1H-cyclopropa[3,4]cyclopenta[1,2-c]pyrazol-1-yl)acetamide] | > 500 nM | 0.16 nM
14 | CCc1cc(-c2ccc3c(=O)n(-c4ccc(Cl)c5c(NS(C)(=O)=O)nn(C)c45)c([C@H](Cc4cc(F)cc(F)c4)NC(=O)Cn4nc(C(F)F)c5c4C(F)(F)[C@@H]4C[C@H]54)nc3c2)nc(CC)n1 (atropisomer, axis not shown; (P)) [Example 68, N—((S)-1-((3P)-3-(4-chloro-1-methyl-3-(methylsulfonamido)-1H-indazol-7-yl)-7-(2,6-diethylpyrimidin-4-yl)-4-oxo-3,4-dihydroquinazolin-2-yl)-2-(3,5-difluorophenyl)ethyl)-2-((3bS,4aR)-3-(difluoromethyl)-5,5-difluoro-3b,4,4a,5-tetrahydro-1H-cyclopropa[3,4]cyclopenta[1,2-c]pyrazol-1-yl)acetamide] | > 500 nM | 0.18 nM
